In ChEMBL document CHEMBL3124830, “Hepatitis C virus translation inhibitors targeting the internal ribosomal entry site” (J Med Chem, 2014):

What was measured:
[1] = Binding affinity to Hepatitis C virus genotype 1b IRES RNA subdomain 2a assessed as conformational change by cyanine dye-based FRET assay; set-up: species or system Hepatitis C virus subtype 1b
Hepatitis C virus [2] = test: Antiviral activity against Hepatitis C virus infected in Huh-7 cells assessed as inhibition of HCV replicon by replicon assay; format: functional, organism-based, Hepacivirus hominis
[3] = test system: Internal ribosome entry site (IRES); test: Binding affinity to Hepatitis C virus IRES RNA subdomain 2a by mass spectrometry assay; set-up: species or system Hepacivirus hominis
Hepatitis C virus [4] = test: Antiviral activity against Hepatitis C virus infected in Huh-7 cells assessed as inhibition of HCV replicon at 10 uM by replicon assay; format: functional, Hepacivirus hominis
[5] = test system: Internal ribosome entry site (IRES); test: Inhibition of Hepatitis C virus IRES RNA-driven translation; conditions: Hepacivirus hominis

| SMILES | EC50 [1] [µM] | EC50 (Hepatitis C virus [2]) [µM] | Kd [3] [µM] | inhibition at 10 µM (Hepatitis C virus [4]) [%] | IC50 [5] [µM] |
| --- | --- | --- | --- | --- | --- |
| CN(C)CC1COc2ccc3nc4n(c3c2C1)CC(CN(C)C)CN4 (stereo unspecified) | 0.6 | 4 |  |  |  |
| CN(C)CCCn1c(N)nc2ccc3c(c21)CC(CN(C)C)CO3 (stereo unspecified) | 3.4 | 2.8 | 0.86 |  |  |
| CC(=O)c1ccc(C(=O)N[C@@H](CCCCN)C(=O)N2C[C@H](N)C[C@H](N)C2)cc1 | 6.3 |  |  | 75 |  |
| Cc1cc(C)nc(/N=C(\N)NCCc2ccccc2)n1 |  |  |  |  | 9.6 |
| Cc1cc2nc3ccc(N(C)C)cc3nc2cc1N |  |  |  |  | 0.08 |
| CN(C)CCCn1c(N)nc2ccccc21 | 50 |  | 100 |  |  |
